Source: patent publication US20080124407A1, “INHIBITING CYP3A4 INDUCTION” (UNIVERSITY OF WASHINGTON, priority 2006, published 2008)
Like-named read-outs stand apart in the source and are kept apart here.

Key:
[1] = biological target: T1, SXR (Homo sapiens, UniProt O75469); assay: Transient transfection luciferase assay, full-length SXR with CYP3A4-luc reporter in HepG2 cells; conditions: for inhibitory activity toward SXR function (SFN analogs): 24 hrs
T1 sequence (O75469 1-434): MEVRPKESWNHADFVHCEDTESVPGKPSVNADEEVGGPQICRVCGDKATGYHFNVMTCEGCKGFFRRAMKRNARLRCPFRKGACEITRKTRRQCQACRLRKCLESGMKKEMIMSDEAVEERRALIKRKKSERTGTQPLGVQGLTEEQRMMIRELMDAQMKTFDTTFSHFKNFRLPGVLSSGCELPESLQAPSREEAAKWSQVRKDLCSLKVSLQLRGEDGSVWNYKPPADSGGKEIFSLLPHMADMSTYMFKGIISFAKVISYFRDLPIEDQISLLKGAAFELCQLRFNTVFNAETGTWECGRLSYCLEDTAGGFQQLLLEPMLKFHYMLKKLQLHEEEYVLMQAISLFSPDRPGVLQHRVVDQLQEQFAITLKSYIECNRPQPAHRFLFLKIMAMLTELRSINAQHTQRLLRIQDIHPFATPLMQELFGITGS

[2] = tested on: UGT1A1; assay: UGT1A1 gene expression by QRT-PCR; type: cell-based, human
[3] = tested on: NQO1; conditions: LS180 cells, 10 or 25 μM SFN, 48 h
[4] = biological target: CAR (Homo sapiens, UniProt Q14994); conditions: 10 μM SFN
Chain of CAR (Q14994 109-352 limits assumed): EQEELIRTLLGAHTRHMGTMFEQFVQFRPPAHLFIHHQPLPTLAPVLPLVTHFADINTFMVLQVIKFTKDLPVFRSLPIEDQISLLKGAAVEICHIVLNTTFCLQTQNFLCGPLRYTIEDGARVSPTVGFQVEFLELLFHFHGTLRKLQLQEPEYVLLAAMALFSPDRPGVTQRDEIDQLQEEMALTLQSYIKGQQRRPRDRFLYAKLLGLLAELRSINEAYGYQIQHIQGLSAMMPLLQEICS

[5] = biological target: SXR / PBP interaction (Homo sapiens, UniProt O75469); conditions: 10 μM RIF
[6] = biological target: mouse PXR (Mus musculus, UniProt O54915); conditions: 10 μM SFN
Chain of mouse PXR (O54915 143-430 limits assumed): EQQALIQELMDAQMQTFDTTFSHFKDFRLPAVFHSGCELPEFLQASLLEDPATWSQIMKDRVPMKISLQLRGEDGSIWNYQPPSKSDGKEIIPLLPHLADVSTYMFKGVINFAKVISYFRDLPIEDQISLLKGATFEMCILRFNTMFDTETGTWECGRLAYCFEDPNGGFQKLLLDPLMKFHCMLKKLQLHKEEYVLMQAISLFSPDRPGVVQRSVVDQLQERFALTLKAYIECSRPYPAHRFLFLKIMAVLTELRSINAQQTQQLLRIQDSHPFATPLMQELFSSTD

[7] = tested on: human hepatocytes; conditions: pretreatment with 50 μM SFN; cited from earlier work
[8] = biological target: PPARα (Homo sapiens, UniProt Q07869); conditions: 10 μM SFN
Chain of PPARα (Q07869 239-466 limits assumed, species assumed): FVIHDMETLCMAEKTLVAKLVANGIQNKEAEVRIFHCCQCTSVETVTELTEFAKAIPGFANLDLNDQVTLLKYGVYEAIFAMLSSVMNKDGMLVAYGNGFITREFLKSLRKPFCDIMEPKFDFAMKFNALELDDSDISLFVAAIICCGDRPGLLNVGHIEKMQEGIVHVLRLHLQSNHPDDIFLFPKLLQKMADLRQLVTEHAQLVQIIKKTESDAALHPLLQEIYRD

[9] = tested on: CYP3A4; conditions: LS180 cells, SFN 24 hrs pre-treatment
[10] = biological target: SXR / SRC-1 interaction (Homo sapiens, UniProt O75469); conditions: 10 μM RIF
[11] = human subjects who ingest SFN in a broccoli soup; cited from earlier work
[12] = tested on: NQO1; conditions: human primary hepatocytes, 10 or 25 μM SFN, 48 h
[13] = biological target: rat PXR (Rattus norvegicus, UniProt Q9R1A7); conditions: 10 μM SFN
Chain of rat PXR (Q9R1A7 143-430 limits assumed): as the sequence (O54915 143-430 limits assumed) above, with G36D, F42V, R61S, L68V, Y118H, D121E, H191R, K192E, S272T counted along it

[14] = tested on: rat CYP3A; conditions: in vivo; cited from earlier work
[15] = tested on: CYP3A4; conditions: hepatocytes
[16] = biological target: human SXR ligand binding domain (Homo sapiens, UniProt O75469); assay: biochemical
[17] = biological target: GAL4-SXR (Homo sapiens, UniProt O75469); assay: cell-based
[18] = tested on: NQO1 and Glutamate Cysteine Ligase (both GCLM and GCLC); conditions: 10 or 50 μM SFN, 48 hrs
[19] = biological target: CYP3A4 (Homo sapiens, UniProt P08684); conditions: concentrations as high as 50 μM; cited from earlier work
Chain of CYP3A4 (Homo sapiens, UniProt P08684) (P08684 whole entry): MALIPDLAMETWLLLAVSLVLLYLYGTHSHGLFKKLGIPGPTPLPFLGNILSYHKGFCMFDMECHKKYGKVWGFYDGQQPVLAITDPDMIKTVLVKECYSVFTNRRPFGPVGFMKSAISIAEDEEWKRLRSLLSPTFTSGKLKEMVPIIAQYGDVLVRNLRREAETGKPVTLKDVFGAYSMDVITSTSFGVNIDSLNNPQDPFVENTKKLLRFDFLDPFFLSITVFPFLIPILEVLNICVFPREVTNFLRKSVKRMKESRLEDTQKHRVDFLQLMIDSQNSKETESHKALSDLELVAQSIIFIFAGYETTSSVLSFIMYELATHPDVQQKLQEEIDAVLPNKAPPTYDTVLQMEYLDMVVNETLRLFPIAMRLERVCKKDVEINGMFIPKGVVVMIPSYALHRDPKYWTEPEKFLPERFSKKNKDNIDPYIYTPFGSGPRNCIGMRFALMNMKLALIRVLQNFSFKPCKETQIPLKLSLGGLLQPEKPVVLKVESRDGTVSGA

[20] = tested on: MDR1 (ABCB1); conditions: LS180 cells
[21] = tested on: CYP3A4; conditions: for average CYP3A4 mRNA levels relative to the solvent control: 48 hrs
[22] = biological target: PPARγ (Homo sapiens, UniProt P37231); conditions: 10 μM SFN
Chain of PPARγ (P37231 238-503 limits assumed, species assumed): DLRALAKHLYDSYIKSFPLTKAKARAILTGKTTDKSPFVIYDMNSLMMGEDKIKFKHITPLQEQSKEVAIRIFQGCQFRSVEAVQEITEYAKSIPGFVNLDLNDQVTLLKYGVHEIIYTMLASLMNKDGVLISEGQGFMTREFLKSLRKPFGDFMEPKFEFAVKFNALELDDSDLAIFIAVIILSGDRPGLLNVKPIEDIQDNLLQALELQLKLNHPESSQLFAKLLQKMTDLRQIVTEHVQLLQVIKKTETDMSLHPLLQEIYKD

[23] = biological target: VDR (Homo sapiens, UniProt P11473); conditions: 10 μM SFN
Chain of VDR (P11473 127-423 limits assumed, species assumed): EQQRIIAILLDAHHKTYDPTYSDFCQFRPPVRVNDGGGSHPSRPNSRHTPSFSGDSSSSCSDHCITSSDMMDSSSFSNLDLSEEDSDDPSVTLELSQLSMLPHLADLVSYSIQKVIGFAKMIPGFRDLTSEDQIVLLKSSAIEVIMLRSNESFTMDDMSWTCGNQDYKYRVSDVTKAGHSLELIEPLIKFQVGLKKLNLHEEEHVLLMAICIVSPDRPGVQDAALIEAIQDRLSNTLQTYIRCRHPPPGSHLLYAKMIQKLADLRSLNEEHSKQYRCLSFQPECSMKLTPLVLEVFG

[24] = biological target: T2, VP16-SXR (human, UniProt O75469 1-434); assay: mammalian two-hybrid in HepG2 cells (GAL4 reporter, VP16-SXR, GAL-ACTR), with rifampicin
T2 construct: also called steroid and xenobiotic receptor; pregnane X receptor
T2 sequence: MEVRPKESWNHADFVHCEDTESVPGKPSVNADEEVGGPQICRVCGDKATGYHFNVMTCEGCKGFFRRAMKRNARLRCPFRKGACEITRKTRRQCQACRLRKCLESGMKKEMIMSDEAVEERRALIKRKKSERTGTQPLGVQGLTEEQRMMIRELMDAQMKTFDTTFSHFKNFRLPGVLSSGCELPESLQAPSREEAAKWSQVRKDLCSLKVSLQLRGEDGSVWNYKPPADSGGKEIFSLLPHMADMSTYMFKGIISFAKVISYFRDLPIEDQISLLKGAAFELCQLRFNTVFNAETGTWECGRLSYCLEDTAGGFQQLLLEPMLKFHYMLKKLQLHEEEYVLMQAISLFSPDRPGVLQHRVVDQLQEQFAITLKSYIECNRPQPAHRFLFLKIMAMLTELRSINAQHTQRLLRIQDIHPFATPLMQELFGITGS

[25] = biological target: T2, VP16-SXR; assay: mammalian two-hybrid in HepG2 cells (GAL4 reporter, VP16-SXR, GAL-TIF2), with rifampicin

CS(=O)(=O)CCCN=C=S [Cheirolin]
inhibitory effect toward SXR function at low concentration ([1]; 10 μM RIF, low concentration, compared with SFN): less potent at low concentration

C[S+]([O-])CCCN=C=S (stereo not drawn) [Iberin]
inhibitory activity toward SXR function (SFN analogs) ([1]; 10 μM RIF, compared with SFN): little effect on inhibitory potency

S=C=NCCc1ccccc1 [PEITC, reference compound]
inhibitory activity toward SXR function (SFN analogs) ([1]; 10 μM RIF, compared with SFN): substantial loss of the inhibitory effect

CC#C[C@]1(O)CC[C@H]2[C@@H]3CCC4=CC(=O)CCC4=C3[C@@H](c3ccc(N(C)C)cc3)C[C@@]21C [RU486, mifepristone, reference compound]
effect on UGT1A1 gene expression [2]: slightly induced

C[S+]([O-])CCCCN=C=S (stereo not drawn) [SFN, 4-methylsulfinylbutyl isothiocyanate]
induction of NQO1 [3]: significantly induced
activity as activating ligand of CAR [4]: nor did it serve as an activating ligand
inhibition of ligand activation of CAR [4]: did not inhibit ligand activation
inhibition of RIF induced PBP recruitment to SXR [5]: inhibited RIF induced SRC-1 and PBP recruitment to SXR in a dose dependent manner
activity as activating ligand of mPXR [6]: nor did it serve as an activating ligand
inhibition of ligand activation of mPXR [6]: did not inhibit ligand activation
decrease in DNA adduction of aflatoxin B1 [7]: > 90%
activity as activating ligand of PPARα [8]: nor did it serve as an activating ligand
inhibition of ligand activation of PPARα [8]: did not inhibit ligand activation
reduction in RIF- and RU486-mediated induction of CYP3A4 [9]: dose-related reduction
inhibition of RIF induced SRC-1 recruitment to SXR [10]: inhibited RIF induced SRC-1 and PBP recruitment to SXR in a dose dependent manner
peak plasma concentration of unconjugated SFN [11]: 4 to 5 µM
induction of NQO1 [12]: significantly induced
IC50 [1]: ~12 µM
inhibition of RIF and RU486 induced reporter activities ([1]; 10 μM RIF or RU486, dose-dependent): significantly inhibited
inhibition of RIF induced SXR reporter activity ([1]; 25 μM SFN, 10 μM RIF): blocked most of the RIF induced SXR reporter activity
concentration as low as which SXR reporter activity was inhibited ([1]; HepG2, RIF or RU486 induced): 1000 nM
activity as activating ligand of rPXR [13]: nor did it serve as an activating ligand
inhibition of ligand activation of rPXR [13]: did not inhibit ligand activation
inhibition of rat CYP3A gene expression [14]: did not inhibit rat CYP3A gene expression
effect on basal level of CYP3A4 expression [15]: significantly reduced the basal level
effect on UGT1A1 gene expression [2]: induced UGT1A1 gene expression
Ki [16]: 16 µM
IC50 [17]: 14 µM
mRNA levels of detoxification enzymes including NQO1, GCLM and GCLC [18]: increased mRNA levels
direct inhibition of CYP3A4 catalytic activity [19]: not a direct inhibitor
inhibition of RIF or RU486 induced expression of MDR1 (ABCB1) [20]: inhibited RIF or RU486 induced expression of MDR1
average CYP3A4 mRNA levels relative to the solvent control ([21]; 10 μM SFN): 69%
average CYP3A4 mRNA levels relative to the solvent control ([21]; 25 μM SFN): 20%
average CYP3A4 mRNA levels relative to the solvent control ([21]; 50 μM SFN): 13%
CYP3A4 responses in single individuals, lowest, of the solvent control ([21]; single individuals): 2%
activity as activating ligand of PPARγ [22]: nor did it serve as an activating ligand
inhibition of ligand activation of PPARγ [22]: did not inhibit ligand activation
activity as activating ligand of VDR [23]: nor did it serve as an activating ligand
inhibition of ligand activation of VDR [23]: did not inhibit ligand activation

C[S+]([O-])CCCCC#N (stereo not drawn) [SFN-nitrile, reference compound]
inhibitory activity toward SXR function (SFN analogs) ([1]; 10 μM RIF, compared with SFN): no inhibitory activity

B1: GAL4 DNA-binding domain linked to the receptor interaction domains of activator of thyroid and retinoic acid receptor (GAL-ACTR) (other)
chain: MKLLSSIEQACDICRLKKLKCSKEKPKCAKCLKNNWECRYSPKTKRSPLTRAHLTEVESRLERLEQLFLLIFPREDLDMILKMDSLQDIKALLTGLFVQDNVNKDAVTDRLASVETDMPLTLRQHRISATSSSEESSNKGQRQLTVSESSVEGAENQRGPLESKGHKKLLQLLTCSSDDRGHSSLTNSPLDSSCKESSVSVTSPSGVSSSTSGGVSSTSNMHGSLLQEKHRILHKLLQNGNSPAEVAKITAEATGKDTSSITSCGDGNVVKQEQLSPKKKENNALLRYLLDRDDPSDALSKELQPQVEGVDNKMSQCTSSTIPSSSQEKDPKIKTE
binding result [24]: no binding (tested: 10 µM RIF)

B2: GAL4 DNA-binding domain linked to the receptor interaction domains of transcriptional intermediary factor (GAL-TIF2) (other)
chain: MKLLSSIEQACDICRLKKLKCSKEKPKCAKCLKNNWECRYSPKTKRSPLTRAHLTEVESRLERLEQLFLLIFPREDLDMILKMDSLQDIKALLTGLFVQDNVNKDAVTDRLASVETDMPLTLRQHRISATSSSEESSNKGQRQLTVSQNSPVNMNPPPLSKMGSLDSKDCFGLYGEPSEGTTGQAESSCHPGEQKETNDPNLPPAVSSERADGQSRLHDSKGQTKLLQLLTTKSDQMEPSPLASSLSDTNKDSTGSLPGSGSTHGTSLKEKHKILHRLLQDSSSPVDLAKLTAEATGKDLSQESSSTAPGSEVTIKQEPVSPKKKENALLRYLLDKDDTKDIGLPEITPKLERLDSKTDPASNTKLIAMKTEKEE
binding result [25]: no binding (tested: 10 µM RIF)
